Where “and” joins values, the source holds several entries; their conditions need not be identical. Equal values may be shown once. Inconclusive results and toxic doses are left out.
System: P388 leukemia ip, CD2F1 mice, survival T/C
Test: NCI In Vivo Anticancer Drug Screen. Data for tumor model P388 Leukemia (intraperitoneal) in CD2F1 (CDF1) mice
Details: endpoint: median survival time, higher = longer survival
Summary of the method: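 Mice carrying the transplanted tumor received test compound or vehicle. Survival was recorded in each group, and the value is the treated-group measurement divided by that of the vehicle-treated control group.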

[1] = dose: 60.0 mg/kg/injection, schedule: Q01DX005 (ip), vehicle: saline with Tween-80
[2] = dose: 120.0 mg/kg/injection, schedule: Q01DX005 (ip), vehicle: saline with Tween-80
[3] = dose: 240.0 mg/kg/injection, schedule: Q01DX005 (ip), vehicle: saline with Tween-80
[4] = dose: 25.0 mg/kg/injection, schedule: Q01DX005 (ip), vehicle: Klucel (hydroxypropylcellulose) (HPC)
[5] = dose: 50.0 mg/kg/injection, schedule: Q01DX005 (ip), vehicle: Klucel (hydroxypropylcellulose) (HPC)
[6] = dose: 50.0 mg/kg/injection, schedule: Q01DX005 (ip), vehicle: saline with Tween-80
[7] = dose: 100.0 mg/kg/injection, schedule: Q01DX005 (ip), vehicle: saline with Tween-80
[8] = dose: 200.0 mg/kg/injection, schedule: Q01DX005 (ip), vehicle: saline with Tween-80
[9] = dose: 100.0 mg/kg/injection, schedule: Q01DX005 (ip), vehicle: Klucel (hydroxypropylcellulose) (HPC)

CCNCc1c2c(O)c3c(O)c(C)c4c(c3c1O)C(=O)C(C)(O/C=C/C(OC)C(C)C(OC(C)=O)C(C)C(O)C(C)C(O)C(C)/C=C/C=C(/C)C(=O)N2)O4 (configuration not stated)
T/C (dose: 25.0 mg/kg/injection, schedule: Q01DX009 (ip), vehicle: other): 89 % of control | T/C (dose: 50.0 mg/kg/injection, schedule: Q01DX009 (ip), vehicle: other): 89 % of control | T/C (dose: 100.0 mg/kg/injection, schedule: Q01DX009 (ip), vehicle: other): 89 % of control | T/C (dose: 200.0 mg/kg/injection, schedule: Q01DX009 (ip), vehicle: other): 89 % of control | T/C (dose: 400.0 mg/kg/injection, schedule: Q01DX009 (ip), vehicle: other): 90 % of control

C=C(C)c1nc(N)nc(-c2ccc(OC)cc2)n1
T/C (dose: 100.0 mg/kg/injection, schedule: Q04DX002 (ip), vehicle: Klucel (hydroxypropylcellulose) (HPC)): 98 % of control | T/C (dose: 200.0 mg/kg/injection, schedule: Q04DX002 (ip), vehicle: Klucel (hydroxypropylcellulose) (HPC)): 94 % of control | T/C (dose: 400.0 mg/kg/injection, schedule: Q04DX002 (ip), vehicle: Klucel (hydroxypropylcellulose) (HPC)): 93 % of control

Cc1ccc2nc(CC(=O)c3cccnc3)c(CC(=O)c3cccnc3)nc2c1
T/C [1]: 93 % of control | T/C [2]: 100 % of control | T/C [3]: 100 % of control

Nc1ccc(N=N/C(=N\Nc2ccccc2[As](=O)(O)O)C(=O)Nc2ccccc2)c(Cl)c1
T/C (dose: 6.25 mg/kg/injection, schedule: Q01DX005 (ip), vehicle: Klucel (hydroxypropylcellulose) (HPC)): 119 % of control | T/C [4]: 117 % of control | T/C [5]: 110 % of control and 123 % of control

CCOc1ccc(C(C)c2cc3c(cc2OC)OCO3)cc1 (configuration not stated)
T/C (dose: 15.0 mg/kg/injection, schedule: Q01DX005 (ip), vehicle: distilled water + Tween-80): 102 % of control | T/C (dose: 25.0 mg/kg/injection, schedule: Q01DX005 (ip), vehicle: distilled water + Tween-80): 100 % of control and 105 % of control (2×) | T/C (dose: 31.0 mg/kg/injection, schedule: Q01DX005 (ip), vehicle: distilled water + Tween-80): 118 % of control | T/C (dose: 62.5 mg/kg/injection, schedule: Q01DX005 (ip), vehicle: distilled water + Tween-80): 124 % of control | T/C (dose: 72.0 mg/kg/injection, schedule: Q01DX005 (ip), vehicle: distilled water + Tween-80): 118 % of control and 119 % of control | T/C (dose: 120.0 mg/kg/injection, schedule: Q01DX005 (ip), vehicle: distilled water + Tween-80): 112 % of control and 120 % of control | T/C (dose: 125.0 mg/kg/injection, schedule: Q01DX005 (ip), vehicle: distilled water + Tween-80): 154 % of control

OCc1c(Cl)nc2n1CCS2
T/C (dose: 25.0 mg/kg/injection, schedule: Q01DX001 (ip), vehicle: saline with Tween-80): 104 % of control | T/C (dose: 50.0 mg/kg/injection, schedule: Q01DX001 (ip), vehicle: saline with Tween-80): 104 % of control

COC(=O)C1=C(C(=O)OC)[C@@H]2CC[C@H]1[C@H]1[C@@H]2N=NN1c1ccccc1
T/C [6]: 106 % of control | T/C [7]: 86 % of control | T/C [8]: 99 % of control

CC(C)/C=C1\C(=O)NCC(=O)N1Cc1ccccc1
T/C (dose: 75.0 mg/kg/injection, schedule: Q01DX001 (ip), vehicle: Klucel (hydroxypropylcellulose) (HPC)): 103 % of control | T/C (dose: 150.0 mg/kg/injection, schedule: Q01DX001 (ip), vehicle: Klucel (hydroxypropylcellulose) (HPC)): 100 % of control | T/C (dose: 300.0 mg/kg/injection, schedule: Q01DX001 (ip), vehicle: Klucel (hydroxypropylcellulose) (HPC)): 94 % of control

Cc1cccc(/C(=C/c2ccc([N+](=O)[O-])cc2)C(=O)Nc2ccc(S(=O)(=O)F)cc2)c1
T/C [1]: 93 % of control | T/C [2]: 98 % of control

CN(C)c1ccc(-c2nc(=O)[nH]c(=O)s2)cc1
T/C (dose: 50.0 mg/kg/injection, schedule: Q01DX009 (ip), vehicle: saline with Tween-80): 102 % of control | T/C (dose: 100.0 mg/kg/injection, schedule: Q01DX009 (ip), vehicle: saline with Tween-80): 100 % of control | T/C (dose: 200.0 mg/kg/injection, schedule: Q01DX009 (ip), vehicle: saline with Tween-80): 98 % of control

CCC[CH2][Sn]([CH2]CCC)([CH2]CCC)[S]C12CC3CC(CC(C3)C1)C2
T/C (dose: 100.0 mg/kg/injection, schedule: Q04DX003 (ip), vehicle: saline): 112 % of control | T/C (dose: 200.0 mg/kg/injection, schedule: Q04DX003 (ip), vehicle: saline): 102 % of control | T/C (dose: 400.0 mg/kg/injection, schedule: Q04DX003 (ip), vehicle: saline): 106 % of control

CNC(=O)OCc1c(-c2ccccc2)c(-c2ccccc2)n(-c2ccccc2)c1COC(=O)NC
T/C (dose: 12.5 mg/kg/injection, schedule: Q01DX009 (ip), vehicle: distilled water + Tween-80): 110 % of control | T/C (dose: 25.0 mg/kg/injection, schedule: Q01DX009 (ip), vehicle: distilled water + Tween-80): 112 % of control and 117 % of control | T/C (dose: 100.0 mg/kg/injection, schedule: Q01DX009 (ip), vehicle: distilled water + Tween-80): 155 % of control | T/C (dose: 200.0 mg/kg/injection, schedule: Q01DX009 (ip), vehicle: distilled water + Tween-80): 171 % of control and 175 % of control

C=C1CCC2C(OC(=O)C2(O)COC(C)=O)C2C(=C)C(O)CC12 (configuration not stated)
T/C (dose: 10.63 mg/kg/injection, schedule: Q01DX005 (ip), vehicle: Klucel (hydroxypropylcellulose) (HPC)): 99 % of control | T/C (dose: 21.25 mg/kg/injection, schedule: Q01DX005 (ip), vehicle: Klucel (hydroxypropylcellulose) (HPC)): 104 % of control | T/C (dose: 42.5 mg/kg/injection, schedule: Q01DX005 (ip), vehicle: Klucel (hydroxypropylcellulose) (HPC)): 100 % of control | T/C (dose: 85.0 mg/kg/injection, schedule: Q01DX005 (ip), vehicle: Klucel (hydroxypropylcellulose) (HPC)): 106 % of control | T/C (dose: 170.0 mg/kg/injection, schedule: Q01DX005 (ip), vehicle: Klucel (hydroxypropylcellulose) (HPC)): 106 % of control

O=C(c1ccc(CSc2ccc(Cl)cc2)o1)N1CCOCC1
T/C [6]: 99 % of control | T/C [7]: 101 % of control | T/C [8]: 91 % of control

NC(=O)NN(Cc1ccc(Br)cc1)N=O
T/C (dose: 100.0 mg/kg/injection, schedule: Q01DX001 (ip), vehicle: Klucel (hydroxypropylcellulose) (HPC)): 96 % of control | T/C (dose: 200.0 mg/kg/injection, schedule: Q01DX001 (ip), vehicle: Klucel (hydroxypropylcellulose) (HPC)): 97 % of control | T/C (dose: 400.0 mg/kg/injection, schedule: Q01DX001 (ip), vehicle: Klucel (hydroxypropylcellulose) (HPC)): 97 % of control

CCCCCCCC(=O)C1C(=O)OC(C)(C)OC1=O
T/C [1]: 100 % of control | T/C [2]: 100 % of control

CC1=CC(=C2C(=O)c3ccccc3C2=O)C=C(C)O1
T/C [5]: 101 % of control | T/C (dose: 60.0 mg/kg/injection, schedule: Q01DX005 (ip), vehicle: Klucel (hydroxypropylcellulose) (HPC)): 95 % of control | T/C [9]: 89 % of control | T/C (dose: 120.0 mg/kg/injection, schedule: Q01DX005 (ip), vehicle: Klucel (hydroxypropylcellulose) (HPC)): 90 % of control | T/C (dose: 200.0 mg/kg/injection, schedule: Q01DX005 (ip), vehicle: Klucel (hydroxypropylcellulose) (HPC)): 88 % of control | T/C (dose: 240.0 mg/kg/injection, schedule: Q01DX005 (ip), vehicle: Klucel (hydroxypropylcellulose) (HPC)): 87 % of control

COc1cc2c(c3c1c(=O)c1cccc(F)c1n3C)C=CC(C)(C)O2
T/C [4]: 113 % of control | T/C [5]: 109 % of control and 110 % of control | T/C [9]: 120 % of control

COC(=O)C1CC(c2ccccc2)N(c2ccccc2)O1 (configuration not stated)
T/C (dose: 50.0 mg/kg/injection, schedule: Q01DX009 (ip), vehicle: Klucel (hydroxypropylcellulose) (HPC)): 100 % of control | T/C (dose: 100.0 mg/kg/injection, schedule: Q01DX009 (ip), vehicle: Klucel (hydroxypropylcellulose) (HPC)): 103 % of control | T/C (dose: 200.0 mg/kg/injection, schedule: Q01DX009 (ip), vehicle: Klucel (hydroxypropylcellulose) (HPC)): 100 % of control

COC(=O)C(/C=[N+](\[O-])C1CCCCC1)=C(\C=[N+](/[O-])C1CCCCC1)C(=O)OC
T/C [1]: 102 % of control | T/C [2]: 87 % of control | T/C [3]: 91 % of control

N#Cc1c(C(=O)NN)c2c(-c3ccc4ccccc4c3)n[nH]c(=O)c2[nH]c1=O
T/C [6]: 91 % of control | T/C [7]: 95 % of control | T/C [8]: 86 % of control
